Experiment in all cases: growth of human tumour cells (NCI), 48 h
Experiment [1] has as its system 786-0 renal.
Experiment [2] has as its system DU-145 prostate.
The subject of experiment [3] is HOP-62 NSCLC.
The test system of experiment [4] is HOP-92 NSCLC.
In experiment [5] the test system is HS 578T breast.
The test system of experiment [6] is IGROV1 ovarian.
The test system of experiment [7] is MCF7 breast.
The subject of experiment [8] is NCI/ADR-RES ovarian.
Experiment [9] relates to OVCAR-4 ovarian.
Experiment [10] deals with PC-3 prostate.

The structures appear in SMILES notation. Several values for one entry are separate records, joined by “and”; a condition that tells them apart may be missing. Equal entries are not always repeated.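 Five compound concentrations were applied to cells in 96-well plates for 48 hours; endpoints were derived by simple linear interpolation of the resulting dose-response curve. At the GI50, growth is halved. TGI: total growth inhibition.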

In the case of `C/C=C/C(CC(O)(C(F)(F)F)C(F)(F)F)=N/NC(N)=S`, the TGI in experiment [1], in experiment [2], in experiment [3], in [4], in [5] and in experiment [6] was > 10 µM in each case. Also, the TGI in experiment [7], in experiment [8], in experiment [9] and in [10] was > 10 µM throughout.
For the molecule `COc1cccc(C2CC(C)(O)Oc3cc4c(cc32)OCO4)c1O` (stereo unspecified), the TGI in experiment [1] is > 100 µM; in experiment [2], 73.2 µM; in [3], 79.7 µM; in experiment [4] it was 92.5 µM; in [5] it was 51.6 µM; in experiment [6], > 100 µM. Also, the TGI in experiment [7] is > 66.5 µM; in experiment [8], 59.3 µM; in experiment [9], > 100 µM; in experiment [10] it was > 100 µM.
For `NC(=O)/C=C/C(=O)c1c(Cl)cccc1Cl`, the GI50 in experiment [1] is 2.14 µM; in experiment [2] it was 1.65 µM; in [3] it was 2.63 µM; in experiment [4] it was 0.574 µM; in experiment [5] it was 2.2 µM; in [6], 1.39 µM. Moreover, the GI50 in experiment [7] is 0.444 µM; in experiment [8], 1.77 µM; in experiment [10] it was 1.46 µM. In addition, the TGI in experiment [2] turned out to be 3.04 µM; in [4] it was 1.94 µM; in [5], 5.15 µM; in experiment [6], 2.8 µM; in [7], 1.79 µM; in experiment [8], 3.44 µM. In experiment [10], this molecule showed a TGI of 2.81 µM.
For `O=C(/C=C/c1ccccc1)CCC1C(=O)c2ccccc2C1=O`, the TGI in experiment [1], in experiment [2], in experiment [4], in [5], in [6] and in experiment [7] was > 100 µM throughout. For the same molecule, the TGI in [8], in experiment [9] and in [10] was > 100 µM throughout.
As to `CC(C)NC(=O)OCc1c(COC(=O)NC(C)C)c(-c2cc[n+](COC(=O)C3CC3)cc2)n2c1CCC2`, the TGI in experiment [1], in [2], in [3], in [4], in [5] and in experiment [6] was > 100 µM in each case. In addition, the TGI in [7], in [8], in experiment [9] and in [10] was > 100 µM throughout.
As to `N#Cc1c(NC(=O)NCc2ccccc2)sc2c1CCCCC2`, the GI50 in [1] is 0.761 µM; in experiment [2], 0.564 µM; in experiment [3], 0.706 µM; in experiment [4], 0.547 µM; in [5], 0.314 µM; in experiment [6], 0.719 µM. The GI50 was 0.353 µM in [7], 0.42 µM in experiment [8], 1.32 µM in experiment [9] and 0.488 µM in [10]. The TGI is > 100 µM in experiment [1]; 4.71 µM in experiment [2]; > 64.2 µM in experiment [3]; 20.9 µM in experiment [4]; 9.33 µM in experiment [5]; > 100 µM in [6]. In addition, the TGI in experiment [7] is > 100 µM; in experiment [8] it was 27.1 µM; in experiment [9], > 100 µM; in experiment [10], > 100 µM.
Turning to `CN(C)CCNC(=O)c1cccc2ccc(-c3ccc(O)cc3)nc12`, the TGI in experiment [1] is 14.4 µM; in [2], 10.6 µM; in [3], 7.2 µM and 4.47 µM; in experiment [4], 11.3 µM and 11.6 µM; in experiment [5], 13.4 µM; in experiment [6], 15.7 µM and 11.8 µM. The TGI in [7] was 5.2 µM; in [8] it was 23.7 µM and 26.3 µM; in [9] it was 10.4 µM and 12.2 µM; in experiment [10], 8.86 µM. In addition, the GI50 in [3] is 1.11 µM; in experiment [6], 2.06 µM; in experiment [8] it was 6.8 µM.
Take `COc1cc(-c2oc(=O)ccc2C#Cc2ccccn2)cc(OC)c1OC`: the GI50 in experiment [1] was 4.47 µM; in experiment [2], 3.48 µM; in [3] it was 2.42 µM; in experiment [4], 2.23 µM; in [5], 2.98 µM; in [7], 0.798 µM. For the same molecule, the GI50 in experiment [8] is 1.09 µM; in experiment [9], 9.65 µM; in [10], 2.21 µM. The TGI in experiment [1] was > 100 µM; in experiment [2], > 29.5 µM; in [3], > 100 µM; in experiment [4], 25.4 µM; in [5] it was > 24 µM; in experiment [7] it was > 100 µM. The TGI in experiment [9] and in experiment [10] was > 100 µM each time.
As to `COC(=O)C1c2cc3c(cc2C(OC2OC(C)C(OC)C(C)(OC)C2OC)CC1(C)O)C(=O)c1c(O)cc2c(c1C3=O)OC1OC2(C)C(O)C([N+](C)(C)[O-])C1O` (stereo unspecified), the TGI in experiment [1] was > 40.5 µM; in experiment [2] it was > 30.1 µM; in [3], > 100 µM; in experiment [5], 25.6 µM; in [6], 4.22 µM; in experiment [7], > 100 µM. Also, the TGI in [8] was > 64.3 µM; in experiment [9] it was > 100 µM; in experiment [10], > 40.7 µM.
As to `CC(=O)N=C1N(/C=C2\C(=O)Oc3ccccc3C2=O)C(=O)/C(=C/c2cccc(Cl)c2Cl)N1C`, the TGI in experiment [1] was > 100 µM; in experiment [2], > 100 µM; in experiment [3] it was 54.4 µM; in [4], 9.38 µM; in [5], 26.1 µM; in [6], > 100 µM. In addition, the results for the TGI in experiment [7], in experiment [8] and in [10] were > 100 µM, 62 µM and > 100 µM, respectively.
As for `CC(=O)Nc1ccc(S(=O)(=O)N2C(=O)CCC2C(=O)Nc2ccc(Br)cc2)cc1` (stereo unspecified), the GI50 in experiment [1] was 2.2 µM; in [2] it was 3.25 µM; in experiment [3], 2.4 µM; in [4], 1.13 µM; in experiment [5], 3.05 µM; in [6], 2.28 µM. Besides, the GI50 in experiment [7] is 1.48 µM; in experiment [8], 2.47 µM; in [10], 0.984 µM. Further, the TGI in experiment [1] is 7.27 µM; in experiment [2] it was 15.8 µM; in [3] it was 11.3 µM; in experiment [4], 5.25 µM; in experiment [5], 22.5 µM; in experiment [6] it was 10.9 µM. Moreover, the TGI was 11 µM in experiment [7], > 100 µM in experiment [8] and 12.1 µM in [10].

(Values after PubChem BioAssay (NCI).)
